Patent US6673576B1, “Process for producing nucleic acids” (priority 1995, dated 2004)

Tests used:
[1] = molecular target: T1, inosine-guanosine kinase derived from Exiguobacterium acetylicum (Exiguobacterium acetylicum, UniProt O24767); experiment: Phosphate donor specificity (nucleoside triphosphates) of the purified kinase; format: biochemical; details: for use as phosphate donor (in words): 5 mM nucleoside triphosphate; for Relative activity: Nucleoside triphosphate (5 mM) instead of ATP, ATP = 100
Description: (§1) Fifty microliter of this reaction mixture was used as a basic composition and the reaction was carried out at 30° C. for 10 minutes. The enzyme had the following properties.
The reaction was performed by using 5 mM of each of various nucleoside triphosphates instead of ATP, and the possible phosphate donors were examined.

[2] = molecular target: T1, inosine-guanosine kinase derived from Exiguobacterium acetylicum; experiment: Substrate specificity (nucleoside as phosphate receptor) of the purified kinase; format: biochemical; details: for Relative activity: Nucleoside (0.5 mM) instead of guanosine, [γ-32P]-ATP, guanosine = 100; for use as phosphate receptor (in words): 0.5 mM nucleoside
Description: as §1
The reaction was performed by using 0.5 mM of each of various nucleosides instead of guanosine and [Υ-^32P]-ATP instead of ATP. The thus-formed nucleoside 5′-phosphate was measured.

[3] = molecular target: T1, inosine-guanosine kinase derived from Exiguobacterium acetylicum; experiment: Effect of metal ions on the purified kinase; format: biochemical; details: for Relative activity: Metal salts (1 mM) present in the reaction mixture, not added = 100; for inhibition of the enzyme by metal ions (in words): 1 mM metal ions
Description: as §1

[4] = molecular target: T1, inosine-guanosine kinase derived from Exiguobacterium acetylicum; experiment: Metal requirement of the purified kinase; format: biochemical; details: for Relative activity: Metal salts (5 mM) instead of magnesium chloride, MgCl2 = 100; for metal requirement (in words): metal ions replacing magnesium chloride
Description: as §1
The reaction was performed by changing magnesium chloride to various metal ions in the reaction solution.

[5] = pH and temperature optimum and stability of the purified kinase; format: biochemical, Exiguobacterium acetylicum
Description: as §1
The reaction was performed by changing the buffer to 100 mM of sodium acetate-acetic acid buffer (pH 4.2-5.6), 2-morphorinoethanesulfonic acid (hereinafter referred to as “MES”)-sodium hydroxide buffer (pH 5.4-6.3), 3-morphorinopropanesulfonic acid (MOPS)-sodium hydroxide buffer (pH 6.3-7.2), Tris-hydrochloride buffer (pH 7.2-8.8), cyclohexylaminopropanesulfonic acid (hereinafter referred to as “CAPS”)- sodium hydroxide buffer (pH 8.8-10.4) or glycine-sodium hydroxide buffer (pH 10.3-11.0). The optimum pH was between 7.7 and 9.9.
The enzyme was treated at room temperature for 30 minutes with 250 mM sodium acetate-acetate buffer ([…]), MES-sodium hydroxide buffer (pH 5.4-6.4), MOPS-sodium hydroxide buffer (pH 6.3-7.3), Tris-hydrochloride buffer (pH 7.2-8.8), CAPS-sodium hydroxide buffer (pH 8.9-10.4) or glycine-sodium hydroxide buffer (pH 10.5-13.3), each containing 2.5 mg/ml of bovine- serum albumin, 25 mM potassium chloride, 0.25 mM dithiothreitol and 5% glycerol. Then, the activity of the enzyme was measured. As a result, the activity of the enzyme was stable within the pH range between 6.7 and 12.1
The reaction was performed within the temperature range between 16° C. and 60° C. […]

[6] = substrate: Nc1nc2c(ncn2[C@@H]2O[C@H](CO)[C@@H](O)[C@H]2O)c(=O)[nH]1; experiment: Km values of the purified kinase; format: biochemical, Exiguobacterium acetylicum; details: other: substrate concentration varied; pH 7.5; 30.0 °C
Description: as §1

[7] = substrate: Nc1ncnc2c1ncn2[C@@H]1O[C@H](COP(=O)(O)OP(=O)(O)OP(=O)(O)O)[C@@H](O)[C@H]1O; experiment: Km values of the purified kinase; format: biochemical, Exiguobacterium acetylicum; details: other: for ATP when guanosine was used as a substrate; pH 7.5; 30.0 °C
Description: as §1

[8] = substrate: OC[C@H]1O[C@@H](n2cnc3c(O)ncnc32)[C@H](O)[C@@H]1O; experiment: Km values of the purified kinase; format: biochemical, Exiguobacterium acetylicum; details: other: substrate concentration varied; pH 7.5; 30.0 °C
Description: as §1

With Nc1ncnc2c1ncn2[C@H]1C[C@H](O)[C@@H](COP(=O)(O)OP(=O)(O)OP(=O)(O)O)O1 [2′-deoxyadenosine triphosphate] the “use as phosphate donor (in words)” value [1] was “used as the phosphate donor” and the Relative activity [1] was 71%.

With Nc1ncnc2c1ncn2[C@H]1C[C@H](O)[C@@H](CO)O1 [2′-deoxyadenosine] the Relative activity [2] was 0%.

With Nc1nc2c(ncn2[C@H]2C[C@H](O)[C@@H](COP(=O)(O)OP(=O)(O)OP(=O)(O)O)O2)c(=O)[nH]1 [2′-deoxyguanosine triphosphate] the “use as phosphate donor (in words)” value [1] was “used as the phosphate donor” and the Relative activity [1] was 61%.

In the case of Nc1nc2c(ncn2[C@H]2C[C@H](O)[C@@H](CO)O2)c(=O)[nH]1 [2′-deoxyguanosine], the “use as phosphate receptor (in words)” value [2] is reported as “used as a phosphate receptor” and the Relative activity [2] is reported as 4%.

[Ba+2].[Cl-].[Cl-] [BaCl2] showed a Relative activity [3] of 106%.

In the case of O.O.[Ca+2].[Cl-].[Cl-] [CaCl2.2H2O], the Relative activity [4] is reported as 1% and the Relative activity [3] is reported as 71%.

For [Cl][Cd][Cl] [CdCl2], the “inhibition of the enzyme by metal ions (in words)” value (shortened to “inhibition of the enzyme”) [3] was “also inhibited” and the Relative activity [3] was 43%.

For O.O.O.O.O.O.[Cl-].[Cl-].[Co+2] [CoCl2.6H2O], the Relative activity [4] was 36%, the “metal requirement (in words)” value [4] was “the reaction proceeded” and the Relative activity [3] was 103%.

With O.O.[Cl][Cu][Cl] [CuCl2.2H2O] the “inhibition of the enzyme” value [3] was “strongly inhibited” and the Relative activity [3] was 25%.

For O.O.O.O.O.O.O.O=S(=O)([O-])[O-].[Fe+2] [FeSO4.7H2O], the Relative activity [4] was 24%, the “metal requirement (in words)” value [4] was “the reaction proceeded” and the Relative activity [3] was 95%.

In the case of [Cl][Hg][Cl] [HgCl2], the “inhibition of the enzyme” value [3] is reported as “strongly inhibited” and the Relative activity [3] is reported as 22%.

With O.O.O.O.O.O.[Cl-].[Cl-].[Mg+2] [MgCl2.6H2O] the Relative activity [4] was 100% and the “metal requirement (in words)” value [4] was “the reaction proceeded”.

In the case of O.O.O.O.O.O.O.O=S(=O)([O-])[O-].[Mg+2] [MgSO4.7H2O], the Relative activity [4] is reported as 107% and the Relative activity [3] is reported as 110%.

In the case of O.O.O.O.[Cl][Mn][Cl] [MnCl2.4H2O], the Relative activity [4] is reported as 55%, the “metal requirement (in words)” value [4] is reported as “the reaction proceeded” and the Relative activity [3] is reported as 81%.

Molecule O.O.O.O.O.O.[Cl][Ni][Cl] [NiCl2.6H2O] has a Relative activity [4] of 1% and a Relative activity [3] of 113%.

For [Cl-].[Cl-].[Zn+2] [ZnCl2], the Relative activity [4] was 1%, the “inhibition of the enzyme” value [3] was “also inhibited” and the Relative activity [3] was 58%.

For Nc1ncnc2c1ncn2[C@@H]1O[C@H](COP(=O)(O)OP(=O)(O)OP(=O)(O)O)[C@@H](O)[C@H]1O [adenosine triphosphate], the “use as phosphate donor (in words)” value [1] was “used as the phosphate donor” and the Relative activity [1] was 100%.

Nc1ncnc2c1ncn2[C@@H]1O[C@H](CO)[C@@H](O)[C@H]1O [adenosine] showed a Relative activity [2] of 0%.

For Nc1ccn([C@@H]2O[C@H](COP(=O)(O)OP(=O)(O)OP(=O)(O)O)[C@@H](O)[C@H]2O)c(=O)n1 [cytidine triphosphate], the Relative activity [1] was 6%.

With Nc1nc2c(ncn2[C@@H]2O[C@H](COP(=O)(O)OP(=O)(O)OP(=O)(O)O)[C@@H](O)[C@H]2O)c(=O)[nH]1 [guanosine triphosphate] the “use as phosphate donor (in words)” value [1] was “used as the phosphate donor” and the Relative activity [1] was 59%.

For Nc1nc2c(ncn2[C@@H]2O[C@H](CO)[C@@H](O)[C@H]2O)c(=O)[nH]1 [guanosine], the “use as phosphate receptor (in words)” value [2] was “used as a phosphate receptor” and the Relative activity [2] was 100%.

In the case of OC[C@H]1O[C@@H](n2cnc3c(O)ncnc32)[C@H](O)[C@@H]1O [inosine], the “use as phosphate receptor (in words)” value [2] is reported as “used as a phosphate receptor” and the Relative activity [2] is reported as 5%.

In the case of O=c1ccn([C@@H]2O[C@H](COP(=O)(O)OP(=O)(O)OP(=O)(O)O)[C@@H](O)[C@H]2O)c(=O)[nH]1 [uridine triphosphate], the Relative activity [1] is reported as 4%.

Molecule O=c1[nH]c(=O)c2ncn([C@@H]3O[C@H](CO)[C@@H](O)[C@H]3O)c2[nH]1 [xanthosine] has a Relative activity [2] of 0%.

B1: inosine-guanosine kinase derived from Exiguobacterium acetylicum (Exiguobacterium acetylicum) (protein)
chain: MNKIAVIGKVFVDIKGTSFAPLHKDAKNVGDITFSNGGTGRNVAQNLAVLGNEVRFISTVTNDQIGVGVLDELKSYGANVDHVEMLEDHGMGMWLAVMDNEGDLQTSISKQPDAKLLEEAILRQSIYALDGVDAVAIDLDLSVTVLERLIHLCRKMELPLFGVCGHLSVIERNRHLLQGFTGFICSREEAEILSDLSIVTVEDAIHVANELAKKGAPFTVVTMSELGAVYVDRRTATSGHVGTKKVKVVDSTGAGDSFFSAVLSELTQEKSAEEALKLGMKVAAEVIASTENGLVPEMLDALQ
In the case of B1, the residual activity maintained ([5]; treatment at 25° C. or lower for 30 minutes) is reported as at least 50%, the “temperature at which the enzyme was inactivated” value ([5]; treatment for 30 minutes at 4 to 60° C.) is reported as at least 40 °C and the Km [6] is reported as 30 µM. It also gave a Km [7] of 1600 µM and a Km [8] of 1000 µM.
